How the values were obtained:
[1] = test system: Bacteroides uniformis; test: Proliferation of Bacteroides uniformis in the intestinal tract, quantification PCR of feces (Example 1); format: in vivo, human; conditions: about 200 mg α-cyclodextrin per day, oral tablets; 8w vs 0w; p<0.05
Protocol: As test subjects, 21 healthy males at the ages of 20 to 49 who have exercise habits of conducting exercise with an intensity of 5 METs or more for 30 minutes or more once or twice a week and who can continue the exercise habits during the test period as well were selected. Among the 21 test subjects, 10 test subjects were selected as an α-cyclodextrin (αCD) intake group, and the remaining 11 test subjects were selected as a placebo group. The test subjects themselves were not informed who belonged to which group. Test Supplements (tablets) having compositions described in Table 1 below were used. One tablet of the test supplements was of about 250 mg. […] The intake period for the test supplements was set to 9 weeks, and change in gut flora was evaluated, a questionnaire on fatigue feeling was conducted, and change in travel time was evaluated, before the start of the intake, after 4-week intake, and after 8-week intake. […] DNA was extracted from the collected feces by a conventional method, and the absolute number of Bacteroides uniformis in the intestinal tract was evaluated by conducting quantification PCR (probe method) with a conventional method using a forward primer, a reverse primer, and a probe targeting a sequence specific to the 16Sr DNA sequence region of Bacteroides uniformis with reference to the description of Anaerobe (2011), 17, 64-68, Jia Tong et al.

[2] = Exercise performance test, 10 km SPIN CYCLE travel time (Example 3); format: in vivo, human; conditions: about 200 mg/day
Protocol: As test subjects, 21 healthy males at the ages of 20 to 49 who have exercise habits of conducting exercise with an intensity of 5 METs or more for 30 minutes or more once or twice a week and who can continue the exercise habits during the test period as well were selected.
Among the 21 test subjects, 10 test subjects were selected as an α-cyclodextrin (αCD) intake group, and the remaining 11 test subjects were selected as a placebo group. The test subjects themselves were not informed who belonged to which group.
Test Supplements (tablets) having compositions described in Table 1 below were used. One tablet of the test supplements was of about 250 mg.
Each test subject of the αCD intake group and the placebo group was asked to take in 3 tablets of the above test supplements once a day at any timing. That is, each test subject of the α-cyclodextrin intake group was asked to take in about 200 mg of α-cyclodextrin per day.
The intake period for the test supplements was set to 9 weeks, and change in gut flora was evaluated, a questionnaire on fatigue feeling was conducted, and change in travel time was evaluated, before the start of the intake, after 4-week intake, and after 8-week intake. […]

With OC[C@H]1O[C@@H]2O[C@H]3[C@H](O)[C@@H](O)[C@@H](O[C@H]4[C@H](O)[C@@H](O)[C@@H](O[C@H]5[C@H](O)[C@@H](O)[C@@H](O[C@H]6[C@H](O)[C@@H](O)[C@@H](O[C@H]7[C@H](O)[C@@H](O)[C@@H](O[C@H]1[C@H](O)[C@H]2O)O[C@@H]7CO)O[C@@H]6CO)O[C@@H]5CO)O[C@@H]4CO)O[C@@H]3CO [α-cyclodextrin] the “bacterial cell number of Bacteroides uniformis in the intestinal tract, after 8-week intake as compared with before intake” value [1] was “about 2.5 times”, the “travel time for 10 km” value ([2]; after 4-week intake, compared with same group before intake) was “significantly shortened” and the “travel time for 10 km” value ([2]; after 8-week intake, compared with same group before intake and placebo group after 8-week intake) was “significantly shortened”.

Source: patent US20250176602A1, “Composition for Proliferation of Bacteroides uniformis in the Intestinal Tract” (Asahi Group Holdings, Ltd., priority 2019, published 2025)
